From US6461997B1, “Triazole sulfones having herbicidal activity” (Monsanto Technology LLC, priority 1999, dated 2002)

Assays:
SOLNI (black nightshade) = assay: Pre-emergence herbicidal activity, warm season; type: in vivo, Solanum nigrum; settings: GR80 = lowest tested rate (300, 100, 30, 10 g/ha) with 80% or greater inhibition; approx. 14 days after treating; 30/21° C.
Outline: (§1)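 GR80 values derive from percent inhibition relative to untreated plants, read roughly 14 days after sowing and pre-emergence soil-surface treatment (compound in 50:50 acetone/water; rates typically 10, 30, 100, 300 g/ha). Warm-season weeds grew at 30/21° C day/night, cool-season ones at 18/13° C; an asterisk marks activity without reaching 80% at the highest rate.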

[1] = tested on: CHEAL (common lambsquarters); assay: Pre-emergence herbicidal activity, warm season; type: in vivo, Chenopodium album; settings: GR80 = lowest tested rate (300, 100, 30, 10 g/ha) with 80% or greater inhibition; approx. 14 days after treating; 30/21° C.
Outline: as §1

CONAR (field bindweed) = assay: Pre-emergence herbicidal activity, warm season; type: in vivo, Convolvulus arvensis; settings: GR80 = lowest tested rate (300, 100, 30, 10 g/ha) with 80% or greater inhibition; approx. 14 days after treating; 30/21° C.
Method: (§2) Tables 5 to 8 summarize results of tests conducted as described below to determine the pre-emergence herbicidal activity, in the form of a GR80 value, of illustrative compounds of this invention. […] Compounds of the invention were typically applied at rates of 300, 100, 30, and 10 g/ha. Where herbicidal activity was evident but 80% inhibition was not achieved at the highest rate tested, an asterisk (*) is shown in the following tables.
(§3) The pre-emergence tests were conducted by the following procedure. Topsoil was sieved to pass through a 1.27 cm screen. Fertilizer was added to the topsoil and the mixture was then sterilized by heating. The topsoil mixture was placed in a pot and compacted to a depth of 1.0 to 1.25 cm from the top of the pot. Seeds of each of several monocotyledonous and dicotyledonous annual plant species were placed on top of the soil. Additional soil was subsequently placed over the seeds to level-fill the pot. A known amount of each test compound dissolved or suspended in an appropriate organic solvent was diluted with a 50:50 mix of acetone and water and applied to the surface of the soil. After treatment the plants were placed in a greenhouse where they received 0.64 cm of overhead irrigation. All subsequent watering consisted of a light overhead mist and/or subirrigation as needed for germination and growth. Tables 5 and 6 below relate to warm season plant species which were placed after pre-emergence treatment in a greenhouse with a 30/21° C. day/night temperature regime. Tables 7 and 8 below relates to cool season plant species placed after pre-emergence treatment in a greenhouse or growth chamber with an 18/13° C. day/night temperature regime.
(§4) Approximately 14 days after planting and treating, the plants were observed and herbicidal efficacy recorded as percent inhibition by comparison with untreated plants.
(§5) The plant species usually regarded as weeds which were utilized in the tests are identified in the tables below according to the following legend, in which “d” indicates a dicotyledonous species and “m” a monocotyledonous species. All monocotyledonous species included in the tests herein are grasses.

POROL (common purslane) = assay: Pre-emergence herbicidal activity, warm season; type: in vivo, Portulaca oleracea; settings: GR80 = lowest tested rate (300, 100, 30, 10 g/ha) with 80% or greater inhibition; approx. 14 days after treating; 30/21° C.
Outline: as §1

ECHCG (barnyardgrass) = assay: Pre-emergence herbicidal activity, warm season; type: in vivo, Echinochloa crus-galli; settings: GR80 = lowest tested rate (300, 100, 30, 10 g/ha) with 80% or greater inhibition; approx. 14 days after treating; 30/21° C.
Outline: (§6)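 Seeds sown in sterilised fertilised topsoil received surface-applied compound in 50:50 acetone/water, typically at 300, 100, 30 and 10 g/ha, then greenhouse-grown at 30/21° C (warm-season species) or 18/13° C (cool-season species). Percent inhibition versus untreated plants was scored at about 14 days, giving GR80; an asterisk marks activity short of 80% at the top rate.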

[2] = tested on: PANMI (wild proso millet); assay: Pre-emergence herbicidal activity, warm season; type: in vivo, Panicum miliaceum; settings: GR80 = lowest tested rate (300, 100, 30, 10 g/ha) with 80% or greater inhibition; approx. 14 days after treating; 30/21° C.
Outline: as §1

[3] = tested on: SORHA (johnsongrass (seedling)); assay: Pre-emergence herbicidal activity, warm season; type: in vivo, Sorghum halepense; settings: GR80 = lowest tested rate (300, 100, 30, 10 g/ha) with 80% or greater inhibition; approx. 14 days after treating; 30/21° C.
Outline: as §6

SETFA (giant foxtail) = assay: Pre-emergence herbicidal activity, warm season; type: in vivo, Setaria faberi; settings: GR80 = lowest tested rate (300, 100, 30, 10 g/ha) with 80% or greater inhibition; approx. 14 days after treating; 30/21° C.
Outline: as §6

PANDI (fall panicum) = assay: Pre-emergence herbicidal activity, warm season; type: in vivo, Panicum dichotomiflorum; settings: GR80 = lowest tested rate (300, 100, 30, 10 g/ha) with 80% or greater inhibition; approx. 14 days after treating; 30/21° C.
Method: as §2, §3, §4, §5

[4] = tested on: BRAPP (broadleaf signalgrass); assay: Pre-emergence herbicidal activity, warm season; type: in vivo, Brachiaria platyphylla; settings: GR80 = lowest tested rate (300, 100, 30, 10 g/ha) with 80% or greater inhibition; approx. 14 days after treating; 30/21° C.
Outline: as §6

[5] = tested on: GALAP (catchweed bedstraw); assay: Pre-emergence herbicidal activity, cool season; type: in vivo, Galium aparine; settings: lowest tested rate with 80% or greater inhibition; rates 300, 100, 30, 10 g/ha; about 14 days
Outline: as §1

POLCO (wild buckwheat) = assay: Pre-emergence herbicidal activity, cool season; type: in vivo, Polygonum convolvulus; settings: lowest tested rate with 80% or greater inhibition; rates 300, 100, 30, 10 g/ha; about 14 days
Outline: as §1

SINAR (wild mustard) = assay: Pre-emergence herbicidal activity, cool season; type: in vivo, Sinapis arvensis; settings: lowest tested rate with 80% or greater inhibition; rates 300, 100, 30, 10 g/ha; about 14 days
Outline: as §1

[6] = tested on: VERPE (creeping speedwell); assay: Pre-emergence herbicidal activity, cool season; type: in vivo, Veronica persicaria; settings: lowest tested rate with 80% or greater inhibition; rates 300, 100, 30, 10 g/ha; about 14 days
Outline: as §1

SASKR (russian thistle) = assay: Pre-emergence herbicidal activity, cool season; type: in vivo, Salsola kali; settings: lowest tested rate with 80% or greater inhibition; rates 300, 100, 30, 10 g/ha; about 14 days
Outline: as §1

STEME (common chickweed) = assay: Pre-emergence herbicidal activity, cool season; type: in vivo, Stellaria media; settings: lowest tested rate with 80% or greater inhibition; rates 300, 100, 30, 10 g/ha; about 14 days
Outline: as §1

[7] = tested on: LAMPU (purple deadnettle); assay: Pre-emergence herbicidal activity, cool season; type: in vivo, Lamium purpureum; settings: lowest tested rate with 80% or greater inhibition; rates 300, 100, 30, 10 g/ha; about 14 days
Outline: as §1

ALOMY (blackgrass) = assay: Pre-emergence herbicidal activity, cool season; type: in vivo, Alopecurus myosuroides; settings: GR80 = lowest tested rate (300, 100, 30, 10 g/ha) with 80% or greater inhibition; approx. 14 days after treating; 18/13° C.
Outline: as §1

SETVI (green foxtail) = assay: Pre-emergence herbicidal activity, cool season; type: in vivo, Setaria viridis; settings: GR80 = lowest tested rate (300, 100, 30, 10 g/ha) with 80% or greater inhibition; approx. 14 days after treating; 18/13° C.
Outline: as §1

LOLMG (annual ryegrass) = assay: Pre-emergence herbicidal activity, cool season; type: in vivo, Lolium multiflorum; settings: GR80 = lowest tested rate (300, 100, 30, 10 g/ha) with 80% or greater inhibition; approx. 14 days after treating; 18/13° C.
Outline: as §1

[8] = tested on: AGSST (creeping bentgrass); assay: Pre-emergence herbicidal activity, cool season; type: in vivo, Agrostis stolonifera; settings: GR80 = lowest tested rate (300, 100, 30, 10 g/ha) with 80% or greater inhibition; approx. 14 days after treating; 18/13° C.
Outline: as §1

## CCSC(F)(F)S(=O)(=O)c1ncn(C(=O)N2CCCC2)n1 [Example 47]
SOLNI (black nightshade)
  Pre-emergence activity (GR80) SOLNI: 300 g/ha
[1]
  Pre-emergence activity (GR80) CHEAL: 300 g/ha
CONAR (field bindweed)
  Pre-emergence activity (GR80) CONAR: 300 g/ha
POROL (common purslane)
  Pre-emergence activity (GR80) POROL: 300 g/ha
ECHCG (barnyardgrass)
  Pre-emergence activity (GR80) ECHCG: 300 g/ha
[2]
  Pre-emergence activity (GR80) PANMI: 100 g/ha
[3]
  Pre-emergence activity (GR80) SORHA: 300 g/ha
SETFA (giant foxtail)
  Pre-emergence activity (GR80) SETFA: 300 g/ha
PANDI (fall panicum)
  Pre-emergence activity (GR80) PANDI: 300 g/ha
[4]
  Pre-emergence activity (GR80) BRAPP: 300 g/ha
[5]
  Pre-emergence activity GR80, GALAP: 300 g/ha
POLCO (wild buckwheat)
  Pre-emergence activity GR80, POLCO: [empty]
SINAR (wild mustard)
  Pre-emergence activity GR80, SINAR: 300 g/ha
[6]
  Pre-emergence activity GR80, VERPE: 10 g/ha
SASKR (russian thistle)
  Pre-emergence activity GR80, SASKR: 100 g/ha
STEME (common chickweed)
  Pre-emergence activity GR80, STEME: 30 g/ha
[7]
  Pre-emergence activity GR80, LAMPU: 30 g/ha
ALOMY (blackgrass)
  Pre-emergence activity (GR80) ALOMY: 300 g/ha
SETVI (green foxtail)
  Pre-emergence activity (GR80) SETVI: 300 g/ha
LOLMG (annual ryegrass)
  Pre-emergence activity (GR80) LOLMG: 300 g/ha
[8]
  Pre-emergence activity (GR80) AGSST: 30 g/ha
